The record followed here is ChEMBL document CHEMBL5543127, “Design, Synthesis, and Biological Evaluation of 2-Phenoxyalkylhydrazide Benzoxazole Derivatives as Quorum Sensing Inhibitors with Strong Antibiofilm Effect” (J Med Chem, 2024).

For test [1], the system named is Staphylococcus aureus. Nature of the test: Anti-microbial activity against methicillin-resistant Staphylococcus aureus ATCC43300 incubated for 20 hrs By CLSI based micro-dilution method. Type of test: functional.
Another test has as its system Escherichia coli. Put plainly: Anti-microbial activity against penicillin-susceptible Escherichia coli ATCC25922 incubated for 20 hrs By CLSI based micro-dilution method. Format: functional.
The test system of the next test is Bacillus subtilis. Nature of the test: Anti-microbial activity against Bacillus subtilis ATCC9372 incubated for 20 hrs By CLSI based micro-dilution method. Type of test: functional. (Broth dilution looks for growth in wells or tubes with falling amounts of substance.)
Test [2] concerns Pseudomonas aeruginosa. Put plainly: Anti-microbial activity against Pseudomonas aeruginosa PAO1 incubated for 20 hrs By CLSI based micro-dilution method. Format: functional.
Test [3] relates to Staphylococcus aureus. Nature of the test: Anti-microbial activity against erythromycin-susceptible Staphylococcus aureus ATCC25923 incubated for 20 hrs By CLSI based micro-dilution method. Format: functional.
The test system of the next test is Bacillus pumilus. Nature of the test: Anti-microbial activity against Bacillus pumilus CMCC63202 incubated for 20 hrs By CLSI based micro-dilution method. Format: functional.
For test [4], the system named is Pseudomonas aeruginosa. Put plainly: Anti-microbial activity against penicillin-susceptible Pseudomonas aeruginosa 27853 incubated for 20 hrs By CLSI based micro-dilution method. Type of test: functional.
Test [5] in a line: Inhibition of quorum sensing system in Pseudomonas aeruginosa PAO1 at logarithmic growth period assessed as inhibition of pyocyanin production at 102.4 microg/ml incubated for 18 hrs by pyocyanin inhibition assay. The following applies: dose 102.4 µg/ml.

Values after ≈ are worked out from the molar mass of the structure shown. Active and inactive are the calls of the source.

Turning to `O=C(CCCCCOc1cccc(F)c1)NNc1nc2ccccc2o1`, the minimum inhibitory concentration (MIC) (as a rule, the smallest concentration in the dilution series that meets the test's criterion for growth inhibition) was more than 512 µg/mL in the test with Staphylococcus aureus [1]; more than 512 µg/mL against Escherichia coli; 512 µg/mL (≈ 1430 µM) with Bacillus subtilis; more than 512 µg/mL against Pseudomonas aeruginosa [2]; 256 µg/mL (≈ 716 µM) with Staphylococcus aureus [3]; more than 512 µg/mL in the test with Bacillus pumilus. In the test on Pseudomonas aeruginosa [4], this compound gave an MIC of 512 µg/mL (≈ 1430 µM). Also, the inhibition (in general, the share of the control response that was lost under treatment) in test [5] is “inactive”.
In the case of `CC[C@H]1OC(=O)[C@H](C)[C@@H](O[C@H]2C[C@@](C)(OC)[C@@H](O)[C@H](C)O2)[C@H](C)[C@@H](O[C@@H]2O[C@H](C)C[C@H](N(C)C)[C@H]2O)[C@](C)(OC)C[C@@H](C)C(=O)[C@H](C)[C@@H](O)[C@]1(C)O` [CLARITHROMYCIN], the minimum inhibitory concentration (MIC) is 16 µg/mL (≈ 21.4 µM) against Staphylococcus aureus [1]; 128 µg/mL (≈ 171 µM) in the test with Escherichia coli; 0.25 µg/mL (≈ 0.334 µM) in the test with Bacillus subtilis; 256 µg/mL (≈ 342 µM) against Pseudomonas aeruginosa [2]; 0.25 µg/mL (≈ 0.334 µM) against Staphylococcus aureus [3]; 0.25 µg/mL (≈ 0.334 µM) against Bacillus pumilus. The same compound came in with a minimum inhibitory concentration (MIC) in the test with Pseudomonas aeruginosa [4] of 128 µg/mL (≈ 171 µM).
Regarding `O=C(NNc1nc2ccccc2s1)c1cccc(Cl)c1`, the minimal inhibitory concentration (MIC) was 128 µg/mL (≈ 421 µM) against Staphylococcus aureus [1]; more than 512 µg/mL against Escherichia coli; 512 µg/mL (≈ 1690 µM) with Bacillus subtilis; more than 512 µg/mL in the test on Pseudomonas aeruginosa [2]; more than 512 µg/mL against Staphylococcus aureus [3]; 256 µg/mL (≈ 843 µM) against Bacillus pumilus. This compound also came in with an MIC in the test with Pseudomonas aeruginosa [4] of 512 µg/mL (≈ 1690 µM).
`CCCCCCCCC(=O)N/N=c1\sc2ccccc2n1C`: the MIC in the test with Staphylococcus aureus [1], in the test on Escherichia coli, in the test with Bacillus subtilis, in the test on Pseudomonas aeruginosa [2], in the test with Staphylococcus aureus [3] and against Bacillus pumilus was more than 512 µg/mL in each case. The compound also displayed a minimum inhibitory concentration (MIC) in the test with Pseudomonas aeruginosa [4] of more than 512 µg/mL. Moreover, the inhibition result in test [5] was “Active”.
As to `COc1ccc(OCCCCCC(=O)NNc2nc3ccccc3o2)cc1`, the MIC against Staphylococcus aureus [1] is 512 µg/mL (≈ 1390 µM); against Escherichia coli, more than 512 µg/mL; in the test with Bacillus subtilis, 512 µg/mL (≈ 1390 µM); in the test on Pseudomonas aeruginosa [2], more than 512 µg/mL; with Staphylococcus aureus [3] it was 256 µg/mL (≈ 693 µM); against Bacillus pumilus, 512 µg/mL (≈ 1390 µM). Further, in the test with Pseudomonas aeruginosa [4], the MIC amounted to 512 µg/mL (≈ 1390 µM). Moreover, in test [5], the inhibition result is “inactive”.
Regarding `CCCCCCCCCC(=O)N/N=c1\sc2ccccc2n1C`, the MIC against Staphylococcus aureus [1] was more than 512 µg/mL; in the test on Escherichia coli it was more than 512 µg/mL; against Bacillus subtilis it was 512 µg/mL (≈ 1540 µM); with Pseudomonas aeruginosa [2], more than 512 µg/mL; in the test with Staphylococcus aureus [3], 512 µg/mL (≈ 1540 µM); in the test with Bacillus pumilus, more than 512 µg/mL. The minimal inhibitory concentration (MIC) in the test on Pseudomonas aeruginosa [4] is more than 512 µg/mL. For the same compound, in test [5], the inhibition result was “Active”.
On to `O=C(CCCCCOc1ccc(F)cc1)NNc1nc2ccccc2o1`, for which the MIC with Staphylococcus aureus [1] was more than 512 µg/mL; in the test on Escherichia coli, more than 512 µg/mL; in the test with Bacillus subtilis, 512 µg/mL (≈ 1430 µM); with Pseudomonas aeruginosa [2], more than 512 µg/mL; with Staphylococcus aureus [3], 512 µg/mL (≈ 1430 µM); against Bacillus pumilus, more than 512 µg/mL. Inhibition of growth against Pseudomonas aeruginosa [4] (MIC) required 512 µg/mL (≈ 1430 µM). Also, in test [5], the inhibition result is “inactive”.
For the compound `COc1ccccc1C(=O)N/N=c1\sc2ccccc2n1C`, the minimum inhibitory concentration (MIC) with Staphylococcus aureus [1], with Escherichia coli, in the test with Bacillus subtilis, in the test on Pseudomonas aeruginosa [2], against Staphylococcus aureus [3] and against Bacillus pumilus was more than 512 µg/mL throughout. In the test with Pseudomonas aeruginosa [4], this compound displayed a minimum inhibitory concentration (MIC) of more than 512 µg/mL.
For the compound `Cc1cccc2sc(NNC(=O)CCCCOc3ccc(Cl)cc3)nc12`, the MIC in the test with Staphylococcus aureus [1] is 512 µg/mL (≈ 1310 µM); in the test with Escherichia coli, more than 512 µg/mL; with Bacillus subtilis, 512 µg/mL (≈ 1310 µM); against Pseudomonas aeruginosa [2], more than 512 µg/mL; in the test on Staphylococcus aureus [3], more than 512 µg/mL; in the test on Bacillus pumilus it was 512 µg/mL (≈ 1310 µM). The minimum inhibitory concentration (MIC) with Pseudomonas aeruginosa [4] was more than 512 µg/mL. In addition, the inhibition in test [5] is 42.2%.
Regarding `CCCCCCC(=O)N/N=c1\sc2ccccc2n1C`, the minimal inhibitory concentration (MIC) in the test on Staphylococcus aureus [1], with Escherichia coli, with Bacillus subtilis, in the test on Pseudomonas aeruginosa [2], against Staphylococcus aureus [3] and in the test on Bacillus pumilus was more than 512 µg/mL throughout. In addition, the minimum inhibitory concentration (MIC) against Pseudomonas aeruginosa [4] was more than 512 µg/mL.
In the case of `Cc1cccc(C(=O)NNc2nc3ccccc3s2)c1`, the MIC was more than 512 µg/mL against Staphylococcus aureus [1]; more than 512 µg/mL in the test on Escherichia coli; 512 µg/mL (≈ 1810 µM) against Bacillus subtilis; more than 512 µg/mL with Pseudomonas aeruginosa [2]; more than 512 µg/mL in the test on Staphylococcus aureus [3]; 512 µg/mL (≈ 1810 µM) against Bacillus pumilus. Further, inhibition of growth in the test on Pseudomonas aeruginosa [4] (MIC) required 512 µg/mL (≈ 1810 µM). Also, in test [5], the inhibition came to 62.8%.
With `Clc1ccc(/C=N/Nc2nc3ccccc3o2)cc1Cl`, the minimum inhibitory concentration (MIC) was 512 µg/mL (≈ 1670 µM) in the test with Staphylococcus aureus [1]; more than 512 µg/mL in the test with Escherichia coli; 512 µg/mL (≈ 1670 µM) against Bacillus subtilis; more than 512 µg/mL against Pseudomonas aeruginosa [2]; 64 µg/mL (≈ 209 µM) in the test with Staphylococcus aureus [3]; more than 512 µg/mL against Bacillus pumilus. In the test with Pseudomonas aeruginosa [4], this compound displayed an MIC of more than 512 µg/mL. Also, in test [5], the inhibition result was “inactive”.
With `Brc1ccccc1/C=N/Nc1nc2ccccc2o1`, the MIC is 256 µg/mL (≈ 810 µM) against Staphylococcus aureus [1]; more than 512 µg/mL with Escherichia coli; 512 µg/mL (≈ 1620 µM) in the test with Bacillus subtilis; more than 512 µg/mL against Pseudomonas aeruginosa [2]; 128 µg/mL (≈ 405 µM) with Staphylococcus aureus [3]; more than 512 µg/mL with Bacillus pumilus. Moreover, in the test on Pseudomonas aeruginosa [4], the minimum inhibitory concentration (MIC) was more than 512 µg/mL. Further, the inhibition result in test [5] was “inactive”.
`O=C(NNc1nc2ccccc2s1)c1ccc(F)cc1`: the MIC was 256 µg/mL (≈ 891 µM) against Staphylococcus aureus [1]; more than 512 µg/mL with Escherichia coli; 512 µg/mL (≈ 1780 µM) against Bacillus subtilis; more than 512 µg/mL against Pseudomonas aeruginosa [2]; more than 512 µg/mL with Staphylococcus aureus [3]; more than 512 µg/mL with Bacillus pumilus. Also, in the test on Pseudomonas aeruginosa [4], the minimum inhibitory concentration (MIC) came out at 512 µg/mL (≈ 1780 µM).
Take `CCCCC(=O)N/N=c1\sc2ccccc2n1C`: the minimal inhibitory concentration (MIC) with Staphylococcus aureus [1] was more than 512 µg/mL; in the test with Escherichia coli, more than 512 µg/mL; with Bacillus subtilis it was more than 512 µg/mL; against Pseudomonas aeruginosa [2], more than 512 µg/mL; with Staphylococcus aureus [3], 512 µg/mL (≈ 1940 µM); in the test on Bacillus pumilus, more than 512 µg/mL. This compound also had a minimal inhibitory concentration (MIC) with Pseudomonas aeruginosa [4] of more than 512 µg/mL. Also, the inhibition result in test [5] was “Active”.
Turning to `Cn1c(=NNC(=O)CCCCOc2ccc(F)cc2)sc2ccccc21`, the MIC in the test on Escherichia coli was more than 512 µg/mL; against Bacillus subtilis, 512 µg/mL (≈ 1370 µM); with Pseudomonas aeruginosa [2] it was more than 512 µg/mL; against Bacillus pumilus, 256 µg/mL (≈ 685 µM); against Pseudomonas aeruginosa [4], more than 512 µg/mL. The inhibition entry in test [5] was “Active”.
Consider `CCCCCC(=O)N/N=c1\sc2ccccc2n1C`, for which the minimum inhibitory concentration (MIC) against Staphylococcus aureus [1] was more than 512 µg/mL; in the test with Escherichia coli, more than 512 µg/mL; with Bacillus subtilis it was more than 512 µg/mL; in the test on Pseudomonas aeruginosa [2], more than 512 µg/mL; in the test with Staphylococcus aureus [3] it was 256 µg/mL (≈ 923 µM); with Bacillus pumilus, more than 512 µg/mL. The compound further had a minimal inhibitory concentration (MIC) with Pseudomonas aeruginosa [4] of more than 512 µg/mL.
On to `Cc1cccc(C(=O)N/N=c2\sc3ccccc3n2C)c1`, for which the MIC in the test with Staphylococcus aureus [1] is more than 512 µg/mL; against Escherichia coli it was more than 512 µg/mL; against Bacillus subtilis, 512 µg/mL (≈ 1720 µM); with Pseudomonas aeruginosa [2], more than 512 µg/mL; in the test on Staphylococcus aureus [3] it was more than 512 µg/mL; against Bacillus pumilus, more than 512 µg/mL. For the same compound, the minimal inhibitory concentration (MIC) against Pseudomonas aeruginosa [4] is more than 512 µg/mL.
Consider `CC(C)c1ccc(/C=N/Nc2nc3ccccc3o2)cc1`, for which the minimum inhibitory concentration (MIC) in the test with Staphylococcus aureus [1] was 256 µg/mL (≈ 916 µM); in the test on Escherichia coli, more than 512 µg/mL; with Bacillus subtilis, 512 µg/mL (≈ 1830 µM); against Pseudomonas aeruginosa [2] it was more than 512 µg/mL; against Staphylococcus aureus [3], 64 µg/mL (≈ 229 µM); against Bacillus pumilus, 512 µg/mL (≈ 1830 µM). The minimum inhibitory concentration (MIC) with Pseudomonas aeruginosa [4] is more than 512 µg/mL. The inhibition result in test [5] was “inactive”.
Take `Cn1c(=NNC(=O)CCCCOc2ccc(Cl)cc2)sc2ccccc21`: the MIC with Escherichia coli was more than 512 µg/mL; in the test on Bacillus subtilis, 512 µg/mL (≈ 1310 µM); with Pseudomonas aeruginosa [2], more than 512 µg/mL; against Staphylococcus aureus [3], 256 µg/mL (≈ 657 µM); against Bacillus pumilus, 256 µg/mL (≈ 657 µM); against Pseudomonas aeruginosa [4], more than 512 µg/mL. For the same compound, the inhibition result in test [5] was “Active”.
Consider `Cc1ccc(C(=O)N/N=c2\sc3ccccc3n2C)cc1`, for which the MIC in the test with Staphylococcus aureus [1], against Escherichia coli, with Bacillus subtilis, with Pseudomonas aeruginosa [2], with Staphylococcus aureus [3] and against Bacillus pumilus was more than 512 µg/mL each time. The MIC against Pseudomonas aeruginosa [4] was more than 512 µg/mL.
